Consider 4 compounds from paper PMC12775434, “Ultra-large virtual screening unveils potent agonists of the neuromodulatory orphan receptor GPR139” (Nature Communications, 2025).

Several values for one entry are separate records, joined by “and”; a condition that tells them apart may be missing. Identical values can stand only once.

This assay concerns the target T1, GPR139 (G12 activation) (Homo sapiens, UniProt Q6DWJ6).
T1 construct: expressed in transfected cells; host or cells: HEK293A (transient, Lipofectamine 2000)
T1 sequence (Q6DWJ6 1-353): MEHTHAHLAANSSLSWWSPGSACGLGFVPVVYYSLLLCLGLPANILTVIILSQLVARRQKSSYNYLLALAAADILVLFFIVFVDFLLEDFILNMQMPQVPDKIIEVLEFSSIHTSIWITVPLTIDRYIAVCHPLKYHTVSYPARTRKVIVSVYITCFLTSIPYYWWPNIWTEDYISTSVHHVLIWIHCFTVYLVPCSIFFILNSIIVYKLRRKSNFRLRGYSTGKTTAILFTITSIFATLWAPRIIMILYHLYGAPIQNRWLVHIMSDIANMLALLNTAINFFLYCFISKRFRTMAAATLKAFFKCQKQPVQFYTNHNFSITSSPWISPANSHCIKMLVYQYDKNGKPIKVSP
Put plainly: BRET G protein activation (dissociation) assay, G12, HEK293A. Type of assay: cell-based. The settings on record: for Emax: HEK293-A, normalized to JNJ-63533054 (JNJ(S)); for EC50: Supplementary Table 6, read-out: pEC50 G12 (converted); for G protein activation, G12: individual replicates. Here is the method: Primary screening and pharmacological characterization of compounds were performed using a CHO-K1 cell line that stably expresses human GPR139 (GPR139-CHOk1). The GPR139-CHOk1 cell line was kindly provided by H. Lundbeck A/S, Denmark[24]. GPR139-CHOk1 cells were grown in Ham’s F-12 Kaighn’s Modification Medium (ThermoFisher #21127030) supplemented with 10% dialyzed fetal bovine serum (US origin, ThermoFisher #26400044), 100 units/mL Penicillin-Streptomycin (ThermoFisher #15140122), and 1 mg/mL Geneticin (ThermoFisher #11811031). […] M1R-CHOk1 cells were purchased from The Missouri S&T cDNA Resource Center (#CEM100TN00). M1R-CHOk1 cells were grown in Ham’s F12 Medium (ThermoFisher #21765029) supplemented with 10% fetal bovine serum (Brazilian origin, ThermoFisher #10270106), 100 units/mL Penicillin-Streptomycin, and 0.25 mg/mL Geneticin. HEK293A cells transiently transfected with GPR139 were used for additional pharmacological assessment of signaling pathways activated by GPR139. HEK239A cells were generously provided by Dr. Asuka Inoue, Tohoku University, Japan. HEK293A cells were grown in Dulbecco’s Modified Eagle Medium (ThermoFisher #31966047) supplemented with 10% dialyzed fetal bovine serum and 100 units/mL Penicillin-Streptomycin. Cell lines were maintained at 37 °C in humidified incubator equilibrated with 5% CO2.
The G protein dissociation assay developed by the lab of Kirill A. Martemyanov was used to measure the coupling of multiple G proteins by GPR139[57]. The assay was performed as described previously with minor modifications. HEK293A cells were reverse transfected 20–24 h prior to assay. 50,000 cells were plated in each well of white opaque tissue culture treated 96-well plates (PerkinElmer #6005680) previously coated with poly-D-lysine. Transfection solutions were prepared as described, and 10 µL transfection solution was mixed with 100 µL cells in each well. The cells in each well were transfected with 18.9 ng GPR139, 6.3 ng Venus 1-155 Gγ2, 6.3 ng Venus 159-239 Gβ1, 6.3 ng masGRK3ct-NanoLuc and 12.6 ng Gαi2, 12.6 ng Gαi3, 12.6 ng GαoA, 12.6 ng Gαq or 25.2 ng Gα12 using 375 nL Lipofectamine 2000 Transfection Reagent. Transfections with Gαq and Gα12 contained 6.3 ng DNA of the active subunit S1 of pertussis toxin (PTX-S1). Each transfection was normalized to 150 ng total DNA with pcDNA3.1. The BRET biosensors were a kind gift from the Martemyanov lab. On the day of the experiment the cells were washed with HEPES buffer. Test compounds were diluted in HEPES buffer from DMSO stocks (final DMSO concentration of maximally 0.3%). NanoLuc Luciferase substrate NanoGlo—furimazine (Promega #N1120) was diluted 1000-fold (final) in HEPES buffer. NanoGlo and test compounds were added, and measurements were performed after 10 s for Gi3, 15 s for Gi2 and GoA, 20 s for Gq, and 90 s for G12—the timepoint where maximal signal occurred with each G protein, ensuring proper determination of the potency for the G protein coupling. Simultaneous dual emission was measured at 535 nm and 475 nm on LUMIstar Omega Microplate Reader (BMG Labtech) at room temperature. The BRET ratio of 535 nm/475 nm (Venus/NanoLuc), reflecting the dissociation of the G protein heterotrimer, was used to determine the G protein activation. The basal BRET ratio obtained with buffer condition was subtracted from the absolute BRET ratio at a given test compound concentration, and the responses were normalized to the one obtained with 10 µM JNJ-63533054 for the activation of Gi2.
Pharmacological data and statistical analyses were performed in GraphPad Prism v9–10 (Graphpad Software Inc., San Diego, CA), which are also specifically described in the figure and table legends. […]

By Emax is commonly meant the maximal effect, on the per cent scale that the assay sets. Turning to `Cc1cscc1-c1nc(CC(=O)N[C@H](C)c2ccccc2)no1` [1.1(R)], the Emax was 51 ± 4% and the EC50 is 0.794 µM. Further, under “log [compound] M -4.5”, the “G protein activation, G12” value was 43 % of JNJ-63533054 at Gi2 and 44 % of JNJ-63533054 at Gi2 and 51 % of JNJ-63533054 at Gi2. Further, the “G protein activation, G12” value (log [compound] M -5.0) was 42 % of JNJ-63533054 at Gi2 and 36 % of JNJ-63533054 at Gi2 and 51 % of JNJ-63533054 at Gi2. In addition, the “G protein activation, G12” value (log [compound] M -5.5) was 35 % of JNJ-63533054 at Gi2 and 29 % of JNJ-63533054 at Gi2 and 39 % of JNJ-63533054 at Gi2. Also, where the note is “log [compound] M -6.0”, the “G protein activation, G12” value was 31 % of JNJ-63533054 at Gi2 and 23 % of JNJ-63533054 at Gi2 and 34 % of JNJ-63533054 at Gi2. Besides, the “G protein activation, G12” value (log [compound] M -6.5) is 19 % of JNJ-63533054 at Gi2 and 12 % of JNJ-63533054 at Gi2 and 22 % of JNJ-63533054 at Gi2. In addition, the “G protein activation, G12” value (log [compound] M -7.0) was 6 % of JNJ-63533054 at Gi2 and 6.57 % of JNJ-63533054 at Gi2 and 15 % of JNJ-63533054 at Gi2. The “G protein activation, G12” value (log [compound] M -7.5) is 3 % of JNJ-63533054 at Gi2 and 4 % of JNJ-63533054 at Gi2 and 9 % of JNJ-63533054 at Gi2. Moreover, for the setting “log [compound] M -8.0”, the “G protein activation, G12” value was -4.59 % of JNJ-63533054 at Gi2 and 2 % of JNJ-63533054 at Gi2 and 6 % of JNJ-63533054 at Gi2.

Consider `Cc1cscc1-c1nc(CC(=O)N[C@@H](C)c2ccccc2)no1` [1.1(S)], for which the Emax was 54 ± 3% and the EC50 is 0.0126 µM. For the same compound, where the note is “log [compound] M -4.5”, the “G protein activation, G12” value was 60 % of JNJ-63533054 at Gi2 (2×) and 52 % of JNJ-63533054 at Gi2. The “G protein activation, G12” value (log [compound] M -5.0) is 54 % of JNJ-63533054 at Gi2 and 46 % of JNJ-63533054 at Gi2 and 58 % of JNJ-63533054 at Gi2. Further, the “G protein activation, G12” value (log [compound] M -5.5) is 51 % of JNJ-63533054 at Gi2 and 44 % of JNJ-63533054 at Gi2 and 56 % of JNJ-63533054 at Gi2. Moreover, the “G protein activation, G12” value (log [compound] M -6.0) is 52 % of JNJ-63533054 at Gi2 and 45 % of JNJ-63533054 at Gi2 and 55 % of JNJ-63533054 at Gi2. The “G protein activation, G12” value (log [compound] M -6.5) is 47 % of JNJ-63533054 at Gi2 and 43 % of JNJ-63533054 at Gi2 and 53 % of JNJ-63533054 at Gi2. Where the note is “log [compound] M -7.0”, the “G protein activation, G12” value was 46 % of JNJ-63533054 at Gi2 and 39 % of JNJ-63533054 at Gi2 and 52 % of JNJ-63533054 at Gi2. For the same compound, the “G protein activation, G12” value (log [compound] M -7.5) is 36 % of JNJ-63533054 at Gi2 and 32 % of JNJ-63533054 at Gi2 and 42 % of JNJ-63533054 at Gi2. Further, the “G protein activation, G12” value (log [compound] M -8.0) was 22 % of JNJ-63533054 at Gi2 and 19 % of JNJ-63533054 at Gi2 and 27 % of JNJ-63533054 at Gi2.

In the case of `C[C@@H](NC(=O)CNC(=O)c1cccc(Cl)c1)c1ccccc1` [JNJ(R), reference compound], the Emax was found to be 48 ± 3% and the EC50 was 3.98 µM. The “G protein activation, G12” value (log [compound] M -4.5) was 45 % of JNJ-63533054 at Gi2 and 42 % of JNJ-63533054 at Gi2 and 41 % of JNJ-63533054 at Gi2. For the same compound, the “G protein activation, G12” value (log [compound] M -5.0) was 37 % of JNJ-63533054 at Gi2 and 34 % of JNJ-63533054 at Gi2 and 33 % of JNJ-63533054 at Gi2. Further, where the note is “log [compound] M -5.5”, the “G protein activation, G12” value was 24 % of JNJ-63533054 at Gi2 (2×) and 19 % of JNJ-63533054 at Gi2. Besides, for the setting “log [compound] M -6.0”, the “G protein activation, G12” value is 13 % of JNJ-63533054 at Gi2 and 11 % of JNJ-63533054 at Gi2 and 9 % of JNJ-63533054 at Gi2. The “G protein activation, G12” value (log [compound] M -6.5) was 7 % of JNJ-63533054 at Gi2 and 5 % of JNJ-63533054 at Gi2 and 2.85 % of JNJ-63533054 at Gi2. The “G protein activation, G12” value (log [compound] M -7.0) is 1.33 % of JNJ-63533054 at Gi2 and 4 % of JNJ-63533054 at Gi2 and 0.154 % of JNJ-63533054 at Gi2. In addition, the “G protein activation, G12” value (log [compound] M -7.5) was 0.474 % of JNJ-63533054 at Gi2 and 6 % of JNJ-63533054 at Gi2 and 1.7 % of JNJ-63533054 at Gi2. Besides, the “G protein activation, G12” value (log [compound] M -8.0) was -0.892 % of JNJ-63533054 at Gi2 and 6 % of JNJ-63533054 at Gi2 and 2.38 % of JNJ-63533054 at Gi2.

With `CC(NC(=O)CNC(=O)c1cccc(Cl)c1)c1ccccc1` (stereo not shown) [JNJ-63533054, reference compound], the Emax was 57 ± 1% and the EC50 was 0.0251 µM. The “G protein activation, G12” value (log [compound] M -4.5, listed as JNJ (S)) was 60 % of JNJ-63533054 at Gi2 (2×) and 57 % of JNJ-63533054 at Gi2. The “G protein activation, G12” value (log [compound] M -5.0, listed as JNJ (S)) was 55 % of JNJ-63533054 at Gi2 and 54 % of JNJ-63533054 at Gi2 and 57 % of JNJ-63533054 at Gi2. Further, the “G protein activation, G12” value (log [compound] M -5.5, listed as JNJ (S)) is 53 % of JNJ-63533054 at Gi2 and 55 % of JNJ-63533054 at Gi2 and 54 % of JNJ-63533054 at Gi2. The “G protein activation, G12” value (log [compound] M -6.0, listed as JNJ (S)) was 50 % of JNJ-63533054 at Gi2 and 51 % of JNJ-63533054 at Gi2 and 53 % of JNJ-63533054 at Gi2. Further, the “G protein activation, G12” value (log [compound] M -6.5, listed as JNJ (S)) was 52 % of JNJ-63533054 at Gi2 and 46 % of JNJ-63533054 at Gi2 and 48 % of JNJ-63533054 at Gi2. Moreover, for the setting “log [compound] M -7.0, listed as JNJ (S)”, the “G protein activation, G12” value is 47 % of JNJ-63533054 at Gi2 and 42 % of JNJ-63533054 at Gi2 and 38 % of JNJ-63533054 at Gi2. Further, the “G protein activation, G12” value (log [compound] M -7.5, listed as JNJ (S)) is 32 % of JNJ-63533054 at Gi2 and 33 % of JNJ-63533054 at Gi2 and 26 % of JNJ-63533054 at Gi2. Moreover, the “G protein activation, G12” value (log [compound] M -8.0, listed as JNJ (S)) was 22 % of JNJ-63533054 at Gi2 and 21 % of JNJ-63533054 at Gi2 and 16 % of JNJ-63533054 at Gi2.
